Structures are written as SMILES.

17 compounds from patent publication US10167279B2 (NOVARTIS AG, priority 2014, dated 2019) can be followed below.

For assay [1], the target named is C-Raf FL (Homo sapiens (Human), UniProt P04049, Y340E/Y341E). Nature of the assay: In vitro Raf activity determination (Alpha Screen, phospho-MEK), C-Raf FL (full length, Y340E/Y341E). Type of assay: biochemical. Particulars: ATP 1 μM; 60 min pre-incubation; 1 hour reaction; column head does not say FL or TR. The gist of the method: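 Read-out is AlphaScreen luminescence using rabbit anti-p-MEK with protein A beads after EDTA stop, with IC50 fitted by non-linear regression. Reaction: Sf9-derived C-Raf plus biotinylated E. coli MEK1 K97R substrate, pH 7.5 Tris/MgCl2/DTT buffer, compound preincubated 60 min at room temperature.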

In assay [2] the target is b-Raf (V600E) (Homo sapiens (Human), UniProt P15056, V600E). Nature of the assay: In vitro Raf activity determination (Alpha Screen, phospho-MEK), b-Raf (V600E). The class given is biochemical. Particulars: ATP 10 μM, 60 min pre-incubation, 3 hours reaction.
Sequence of b-Raf (V600E) (P15056 whole entry V600E): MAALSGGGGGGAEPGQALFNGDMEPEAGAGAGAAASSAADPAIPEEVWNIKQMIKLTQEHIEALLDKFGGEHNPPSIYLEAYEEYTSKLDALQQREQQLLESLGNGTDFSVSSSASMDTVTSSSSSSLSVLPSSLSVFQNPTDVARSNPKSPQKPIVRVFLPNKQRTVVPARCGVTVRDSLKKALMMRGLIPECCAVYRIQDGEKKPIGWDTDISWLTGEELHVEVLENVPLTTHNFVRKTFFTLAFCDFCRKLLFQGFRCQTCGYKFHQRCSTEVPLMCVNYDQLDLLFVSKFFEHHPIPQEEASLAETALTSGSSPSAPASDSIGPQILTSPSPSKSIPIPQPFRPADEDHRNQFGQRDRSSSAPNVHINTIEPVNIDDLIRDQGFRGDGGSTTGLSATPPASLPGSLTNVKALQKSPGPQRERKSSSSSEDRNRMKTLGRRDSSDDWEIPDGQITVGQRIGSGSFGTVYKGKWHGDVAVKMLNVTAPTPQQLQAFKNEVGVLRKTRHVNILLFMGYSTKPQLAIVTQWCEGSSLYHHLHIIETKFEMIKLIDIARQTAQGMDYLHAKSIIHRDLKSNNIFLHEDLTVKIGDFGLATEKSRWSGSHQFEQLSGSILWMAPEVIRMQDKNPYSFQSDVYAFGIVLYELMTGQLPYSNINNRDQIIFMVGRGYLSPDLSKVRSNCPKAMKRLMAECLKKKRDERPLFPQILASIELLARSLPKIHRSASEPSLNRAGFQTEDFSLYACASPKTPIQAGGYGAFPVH

Sequence of C-Raf FL (P04049 whole entry Y340E/Y341E): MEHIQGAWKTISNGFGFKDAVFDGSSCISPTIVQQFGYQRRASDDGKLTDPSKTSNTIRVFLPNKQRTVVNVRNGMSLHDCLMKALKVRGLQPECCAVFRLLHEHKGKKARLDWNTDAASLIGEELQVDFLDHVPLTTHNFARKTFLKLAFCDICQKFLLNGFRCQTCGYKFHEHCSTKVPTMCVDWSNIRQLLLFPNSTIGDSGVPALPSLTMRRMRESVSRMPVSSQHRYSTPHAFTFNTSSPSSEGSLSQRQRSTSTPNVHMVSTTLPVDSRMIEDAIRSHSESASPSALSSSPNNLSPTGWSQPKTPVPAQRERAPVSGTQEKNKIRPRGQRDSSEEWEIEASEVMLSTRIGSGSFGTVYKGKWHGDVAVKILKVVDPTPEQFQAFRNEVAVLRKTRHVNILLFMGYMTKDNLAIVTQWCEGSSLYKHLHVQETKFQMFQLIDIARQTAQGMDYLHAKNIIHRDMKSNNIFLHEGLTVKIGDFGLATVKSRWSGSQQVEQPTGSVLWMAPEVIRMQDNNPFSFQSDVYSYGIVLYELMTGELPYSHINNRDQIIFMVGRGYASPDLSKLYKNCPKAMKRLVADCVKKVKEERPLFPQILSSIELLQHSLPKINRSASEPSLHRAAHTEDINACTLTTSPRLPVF
Sequence of C-Raf FL (P63104 whole entry partner): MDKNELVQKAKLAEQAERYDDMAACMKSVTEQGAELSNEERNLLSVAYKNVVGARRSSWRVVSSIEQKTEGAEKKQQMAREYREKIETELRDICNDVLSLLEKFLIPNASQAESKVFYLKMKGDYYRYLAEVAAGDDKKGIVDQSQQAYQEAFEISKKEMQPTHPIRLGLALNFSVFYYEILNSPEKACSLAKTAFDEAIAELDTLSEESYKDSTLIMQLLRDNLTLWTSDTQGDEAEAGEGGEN

As to `CCC(F)(F)c1cc(C(=O)Nc2cnc(C)c(-c3cnc(OC)c(C4(C#N)COC4)c3)c2)ccn1` [Example 117, N-(5′-(3-cyanooxetan-3-yl)-6′-methoxy-2-methyl-[3,3′-bipyridin]-5-yl)-2-(1,1-difluoropropyl)isonicotin-amide], the figures for the IC50 in assay [1] and in assay [2] were 1.43 nM and 7.19 nM, respectively.
For `Cc1ncc(NC(=O)c2cccc(C(F)(F)F)c2)cc1-c1cnc(OC2CCOCC2)c(C2(O)COC2)c1` [Example 118, N-(5′-(3-hydroxyoxetan-3-yl)-2-methyl-6′-((tetrahydro-2H-pyran-4-yl)oxy)-[3,3′-bipyridin]-5-yl)-3-(trifluoromethyl)benzamide] the same measures were 0.562 nM and 3.89 nM.
For `Cc1ccc(NC(=O)c2cccc(C(F)(F)F)c2)cc1-c1cnc(OC2CCOCC2)c(C2(O)COC2)c1` [Example 119, N-(3-(5-(3-hydroxyoxetan-3-yl)-6-((tetrahydro-2H-pyran-4-yl)oxy)pyridin-3-yl)-4-methylphenyl)-3-(trifluoromethyl)benzamide], the IC50 in assay [1] was found to be 0.176 nM; in assay [2] it was 0.808 nM.
For `CCOc1ncc(-c2cc(NC(=O)c3cc(C(C)(C)N)cc(C(F)(F)F)c3)ccc2C)cc1C1(O)COC1` [Example 120, 3-(2-aminopropan-2-yl)-N-(3-(6-ethoxy-5-(3-hydroxyoxetan-3-yl)pyridin-3-yl)-4-methylphenyl)-5-(trifluoromethyl)benzamide], the IC50 in assay [1] was determined as 2.2 nM; in assay [2] it was 10 nM.
`CCOc1ncc(-c2cc(NC(=O)c3ccnc(C(C)(C)C#N)c3)ccc2C)cc1C1(O)COC1` [Example 121, 2-(2-cyanopropan-2-yl)-N-(3-(6-ethoxy-5-(3-hydroxyoxetan-3-yl)pyridin-3-yl)-4-methylphenyl)isonicotin-amide]: the IC50 in assay [1] is 0.975 nM; in assay [2], 4.93 nM.
On to `CCOc1ncc(-c2cc(NC(=O)c3ccnc(C(C)(C)F)c3)ccc2C)cc1C1(O)COC1` [Example 122, N-(3-(6-ethoxy-5-(3-hydroxyoxetan-3-yl)pyridin-3-yl)-4-methylphenyl)-2-(2-fluoropropan-2-yl)isonicotinamide], for which the IC50 in assay [1] came out at 0.321 nM; in assay [2] it was 1.79 nM.
For the compound `CCOc1ncc(-c2cc(NC(=O)c3ccnc(C(C)(F)F)c3)ccc2C)cc1C1(O)COC1` [Example 123, 2-(1,1-difluoroethyl)-N-(3-(6-ethoxy-5-(3-hydroxyoxetan-3-yl)pyridin-3-yl)-4-methylphenyl)isonicotin-amide], the results for the IC50 in assay [1] and in assay [2] were 0.165 nM and 1.22 nM, respectively.
On to `CCOc1ncc(-c2cc(NC(=O)c3ccnc(C(F)(F)F)c3)ccc2C)cc1C1(O)COC1` [Example 124, N-(3-(6-ethoxy-5-(3-hydroxyoxetan-3-yl)pyridin-3-yl)-4-methylphenyl)-2-(trifluoromethyl)isonicotin-amide], for which the IC50 in assay [1] turned out to be 0.372 nM; in assay [2], 2.28 nM.
As to `Cc1ncc(NC(=O)c2cc(C(C)(C)C#N)ccn2)cc1-c1cccc(C2(C)COC2)c1` [Example 126, 4-(2-cyanopropan-2-yl)-N-(6-methyl-5-(3-(3-methyloxetan-3-yl)phenyl)pyridin-3-yl)picolinamide], the results for the IC50 in assay [1] and in assay [2] were 1.97 nM and 7.74 nM, respectively.
For `CCOc1nnc(-c2cc(NC(=O)c3ccnc(C(C)(F)F)c3)cnc2C)cc1C1(C)COC1` [Example 127, 2-(1,1-difluoroethyl)-N-(5-(6-ethoxy-5-(3-methyloxetan-3-yl)pyridazin-3-yl)-6-methylpyridin-3-yl)isonicotinamide] the same measures were 0.987 nM and 3.15 nM.
For `CCOc1nnc(-c2cc(NC(=O)c3ccnc(C(C)(C)F)c3)cnc2C)cc1C1(C)COC1` [Example 128, N-(5-(6-ethoxy-5-(3-methyloxetan-3-yl)pyridazin-3-yl)-6-methylpyridin-3-yl)-2-(2-fluoropropan-2-yl)isonicotinamide], in that order: 0.633 nM and 2.15 nM.
Regarding `CCOc1nnc(-c2cc(NC(=O)c3cc(CN(C)C)cc(C(F)(F)F)c3)cnc2C)cc1C1(C)COC1` [Example 129, 3-((dimethylamino)methyl)-N-(5-(6-ethoxy-5-(3-methyloxetan-3-yl)pyridazin-3-yl)-6-methylpyridin-3-yl)-5-(trifluoromethyl)benzamide], the IC50 in assay [1] is 3.54 nM; in assay [2], 23.4 nM.
For the compound `CCOc1ncc(-c2cc(NC(=O)c3cc(C(C)(C)N)cc(C(F)(F)F)c3)cnc2C)cc1C1(F)COC1` [Example 130, 3-(2-aminopropan-2-yl)-N-(6′-ethoxy-5′-(3-fluorooxetan-3-yl)-2-methyl-[3,3′-bipyridin]-5-yl)-5-(trifluoromethyl)benzamide], the IC50 in assay [1] is 3.09 nM; in assay [2] it was 20.1 nM.
On to `CCOc1ncc(-c2cc(NC(=O)c3ccnc(C(C)(C)F)c3)cnc2C)cc1C1(CF)COC1` [Example 131, N-(6′-ethoxy-5′-(3-(fluoromethyl)oxetan-3-yl)-2-methyl-[3,3′-bipyridin]-5-yl)-2-(2-fluoropropan-2-yl)isonicotinamide], for which the IC50 in assay [1] was found to be 0.31 nM; in assay [2], 1.3 nM.
As for `Cc1ccc(NC(=O)c2ccnc(C(C)(F)F)c2)cc1-c1cnc(-c2cnn(C)c2)c(C2(O)COC2)c1` [Example 144, 2-(1,1-difluoroethyl)-N-(3-(5-(3-hydroxyoxetan-3-yl)-6-(1-methyl-1H-pyrazol-4-yl)pyridin-3-yl)-4-methylphenyl)isonicotin-amide], the IC50 in assay [1] worked out at 0.364 nM; in assay [2], 1.67 nM.
On to `COc1ncc(-c2cc(C(=O)Nc3ccnc(S(C)(=O)=O)c3)ccc2C)cc1C1(O)COC1` [Example 145, 3-(5-(3-hydroxyoxetan-3-yl)-6-methoxypyridin-3-yl)-4-methyl-N-(2-(methylsulfonyl)pyridin-4-yl)benzamide], for which the IC50 amounted to 7.29 nM in assay [1] and 49.3 nM in assay [2].
For `COc1ncc(-c2cc(C(=O)Nc3cccc(C(C)(C)C#N)c3)ccc2C)cc1C1(O)COC1` [Example 146, N-(3-(2-cyanopropan-2-yl)phenyl)-3-(5-(3-hydroxyoxetan-3-yl)-6-methoxypyridin-3-yl)-4-methylbenzamide], in that order: 0.801 nM and 3.31 nM.
